≈ marks a conversion by molar mass, not a printed value. Read-outs that look alike come from different tables or passages of the source.
Assays:
[1] = system: Staphylococcus aureus strain ATCC 29213 (wild type); experiment: MIC of the compounds used alone, microdilution in a liquid medium (CLSI); format: cell-based; settings: Staphylococcus aureus, ATCC29213; antibiotic alone (second value of cell); S. aureus ATCC 29213; read-out: Initial MICs
Excerpt: (§1) The MICs of the antibiotics were previously defined for each strain, by the method of microdilution in a liquid medium (CLSI (Clinical and Laboratory Standards Institute), 2003).

[2] = as above; format: cell-based, Staphylococcus aureus; settings: Staphylococcus aureus, MRSA; antibiotic alone (second value of cell); SaR4; read-out: MIC
Excerpt: as §1

[3] = system: MRSA strain having a resistance to the aminoglycosides and fluoroquinolones (SaR3); experiment: as above; format: cell-based, Staphylococcus aureus; settings: Staphylococcus aureus, MRSA; antibiotic alone (second value of cell); SaR3; read-out: MIC
Excerpt: as §1

[4] = system: MRSA strain without associated resistance (SaR1); experiment: as above; format: cell-based, Staphylococcus aureus; settings: Staphylococcus aureus, MRSA; antibiotic alone (second value of cell); SaR1; read-out: MIC
Excerpt: as §1

[5] = system: Escherichia coli, Staphylococcus aureus and Pseudomonas aeruginosa strains; experiment: Chessboard technique, summary statements over all strains and combinations tested; format: cell-based; settings: strain not stated
Excerpt: 1.3. Procedure: Chessboard Technique
The same procedure is followed for the Cx1. […] Thus 64 ATB/Cx1 combinations are obtained.
The FIC (Fractional Inhibitory Concentration Index) value is defined by the following formula: […]
When FIC≦0.5, there is a synergistic effect between antibiotic A and antibiotic B.
When 0.5<FIC≦1, there is an additive effect between antibiotic A and antibiotic B.
When 1<FIC≦4, there is an indifferent effect between antibiotic A and antibiotic B.
When FIC>4, there is an antagonistic effect between antibiotic A and antibiotic B.
For each strain and each antibiotic/Cx1 combination, the experiments were repeated a minimum of 3 times.

[6] = system: Pseudomonas aeruginosa strain ATCC 27853 (wild type); experiment: MIC of the compounds used alone, microdilution in a liquid medium (CLSI); format: cell-based; settings: antibiotic alone (second value of cell), P. aeruginosa ATCC 27853
Excerpt: as §1

[7] = system: Pseudomonas aeruginosa strain PaR3; experiment: as above; format: cell-based; settings: antibiotic alone (second value of cell)
Excerpt: as §1

[8] = system: mucoid strain of Pseudomonas aeruginosa PaR5; experiment: as above; format: cell-based; settings: antibiotic alone (second value of cell)
Excerpt: as §1

[9] = system: Pseudomonas aeruginosa strain PaR2; experiment: microbe, parasite or virus in culture; format: cell-based; settings: antibiotic alone (second value of cell)
Excerpt: as §1

[10] = system: EcR1: Penicillinase-Producing Escherichia coli without Associated Resistance; experiment: Antibiogram by the disk diffusion technique; format: cell-based; settings: for MIC mg/L (diameter in mm): EcR1, cells that print a diameter, Table A2; for Diameter: EcR1, disk diffusion
Procedure: 5.1 EcR1: Penicillinase-Producing Escherichia coli without Associated Resistance The bacterial and antibiogramidentification is carried out by the VITEK 2 system (bioMérieux) and by the disk diffusion technique.

[11] = system: EcR3: ESBL-Producing Escherichia coli; experiment: Antibiogram by the disk diffusion technique; format: cell-based; settings: for Diameter: Table C1; for diameter in mm: Table C2
Procedure: The bacterial and antibiogramidentification is carried out by the VITEK 2 system (bioMerieux) and by the disk diffusion technique

[12] = system: PaR3: Pseudomonas aeruginosa; experiment: Antibiogram, MIC by the VITEK 2 system; format: cell-based
Procedure: (§2) The bacterial and antibiogramidentification is carried out by the VITEK 2 system (bioMérieux)

[13] = system: PaR5: Pseudomonas aeruginosa; experiment: Antibiogram by the disk diffusion technique; format: cell-based; settings: for diameter in mm: disk diffusion inhibition diameter, strain PaR5
Procedure: (§3) The bacterial and antibiogramidentification is carried out by the VITEK 2 system (bioMérieux) and by the disk diffusion technique

[14] = system: PaR2: Pseudomonas aeruginosa; format: cell-based; settings: for Diameter: Table G1; for diameter in mm: Table G2
Procedure: as §3

[15] = system: ESBL-producing strain of Escherichia coli, having an associated resistance to the aminoglycosides (EcR3); experiment: MIC of the compounds used alone, microdilution in a liquid medium (CLSI); format: cell-based; settings: Escherichia coli, antibiotic alone (second value of cell), read-out: Initial MICs
Excerpt: as §1

[16] = system: Escherichia coli strain ATCC 25922 (wild type); experiment: as above; format: cell-based; settings: Escherichia coli, ATCC25922; antibiotic alone (second value of cell); E. coli ATCC 25922; read-out: Initial MICs
Excerpt: as §1

[17] = system: cephalosporinase-hyperproducing strain of Escherichia coli (EcR2); experiment: as above; format: cell-based; settings: Escherichia coli, antibiotic alone (second value of cell), read-out: Initial MICs
Excerpt: as §1

[18] = system: penicillinase-producing strain of Escherichia coli without associated resistance (EcR1); experiment: as above; format: cell-based; settings: Escherichia coli, antibiotic alone (second value of cell), read-out: Initial MICs
Excerpt: as §1

[19] = system: SaR1: Meticillin-Resistant Staphylococcus aureus without Associated Resistance; experiment: Antibiogram, MIC by the VITEK 2 system; format: cell-based; settings: SaR1
Procedure: as §2

[20] = system: SaR3: Meticillin-Resistant Staphylococcus aureus; experiment: Antibiogram by the disk diffusion technique; format: cell-based
Procedure: as §3

[21] = system: SaR4: Meticillin-Resistant Staphylococcus aureus; experiment: Antibiogram, MIC by the VITEK 2 system; format: cell-based; settings: Staphylococcus aureus, SaR4, read-out: MIC
Procedure: as §3

[22] = system: SaR1: Meticillin-Resistant Staphylococcus aureus without Associated Resistance; experiment: Antibiogram, inhibition diameter (Table D1); format: cell-based
Procedure: as §2

[23] = Pseudomonas aeruginosa, read-out: MIC

[H]/N=C(/N)N[C@H]1[C@H](O)[C@@H](O)[C@H](O[C@@H]2O[C@@H](C)[C@](O)(C=O)[C@H]2O[C@@H]2O[C@@H](CO)[C@H](O)[C@@H](O)[C@@H]2NC)[C@@H](N/C(N)=N\[H])[C@@H]1O [Streptomycin]
MIC [1]: 4 µg/mL
MIC [2]: 4 µg/mL
MIC [3]: 4 µg/mL
MIC [4]: 4 µg/mL
interaction between the antibiotic and Cx1 [5]: synergism

Colimycin
MIC [6]: 4 mg/L
MIC [7]: 8 mg/L
MIC [8]: 16 mg/L
MIC [9]: 8 mg/L
MIC mg/L (diameter in mm) [10]: 15 mm
CA-SFM Interpretation ([10]; EcR1, diameter against CA-SFM 2011 limits): Susceptible
EUCAST Interpretation ([10]; EcR1, diameter against EUCAST 2011 limits): Resistant
Diameter ([10]; Table A1): 15 mm
Results ([10]; EcR1, interpretation of the diameter against Dmin Dmax, Table A1): Susceptible
CA-SFM Interpretation ([11]; Cd CA-SFM 2011): Susceptible
Diameter [11]: 16 mm
Results ([11]; Table C1, against Dmin Dmax): Susceptible
diameter in mm [11]: 16 mm
CA-SFM Interpretation ([12]; Cc CA-SFM 2011): Susceptible
CLSI Interpretation ([12]; Cc CLSI 2011): Susceptible
EUCAST Interpretation ([12]; Cc EUCAST 2011): Susceptible
MIC ([12]; Table H1): ≦0.5
Results ([12]; Table H1): Susceptible
MIC mg/L ([12]; Table H2): ≦0.5 mg/L
Diameter ([13]; PaR5, Table I1): 23 mm
Results ([13]; PaR5, Table I1, against Dmin-Dmax): Susceptible
diameter in mm [13]: 23 mm
CA-SFM Interpretation ([13]; disk diffusion, PaR5, versus critical diameter CA-SFM 2011): Susceptible
CLSI Interpretation ([13]; disk diffusion, PaR5, versus critical diameter CLSI 2011): Susceptible
CA-SFM Interpretation ([14]; Cd CA-SFM 2011): Susceptible
CLSI Interpretation ([14]; Cd CLSI 2011): Susceptible
Diameter [14]: 20 mm
Results ([14]; Table G1, against Dmin-Dmax): Susceptible
diameter in mm [14]: 20 mm

CO[C@H]1/C=C/O[C@@]2(C)Oc3c(C)c(O)c4c(O)c(c(/C=N/N5CCN(C)CC5)c(O)c4c3C2=O)NC(=O)/C(C)=C\C=C\[C@H](C)[C@H](O)[C@@H](C)[C@@H](O)[C@@H](C)[C@H](OC(C)=O)[C@@H]1C [Rifampicin]
MIC [15]: 4 µg/mL
MIC [16]: 4 µg/mL
MIC ([6]; Pseudomonas aeruginosa, ATCC27853, read-out: MIC): 64 mg/L
MIC [7, 23]: 32 mg/L
MIC [17]: 2 µg/mL
MIC [8, 23]: 16 mg/L
MIC [18]: 4 µg/mL
MIC [9, 23]: 64 mg/L (≈ 77.8 µM)
MIC mg/L (diameter in mm) [10]: 16 mm
Diameter ([10]; Table A1): 16 mm
Diameter [11]: 15 mm
diameter in mm [11]: 15 mm
MIC mg/L ([19]; Table D2): ≦0.5 mg/L
MIC ([19]; Staphylococcus aureus, Table D1, read-out: MIC): ≤ 0.5 µg/mL
Diameter ([13]; PaR5, Table I1): 13 mm
diameter in mm [13]: 13 mm
Diameter ([20]; Table E1): 31 mm
diameter in mm ([20]; Table E2): 31 mm
MIC ([21]; Table F1): ≤ 1 µg/mL
MIC ([21]; Table F2, MIC): ≤ 1 µg/mL
Diameter [14]: 25 mm
diameter in mm [14]: 25 mm
Diameter [22]: 30 mm

— patent publication US20140066365A1, “USE OF CALIXARENES ASSOCIATED WITH AN ANTIBIOTIC IN THE TREATMENT OF BACTERIAL INFECTIONS” (priority 2011, published 2014)
